Experimental findings from DBAASP are described below.

Converted amounts (≈) assume the structure as drawn.

Assay in all cases: ≥ marks a high value that may be exact or a test limit, other limits are often not marked, values filed in µg/mL are converted to µM
Experiment [1] concerns Bacillus subtilis ATCC 6051.
Experiment [2] concerns Proteus mirabilis MTCC 3158.
In experiment [3] the test system is Escherichia coli K12 MG1655.
Experiment [4] deals with Shigella boydii MTCC 11947.
Experiment [5] has as its system Proteus vulgaris MTCC 1771.
In experiment [6] the test system is Salmonella enterica subsp. enterica serovar Typhimurium ATCC 14028.
Experiment [7] has as its system Klebsiella pneumoniae MTCC 7407.
Experiment [8] concerns Stenotrophomonas maltophilia MTCC 1890.
Experiment [9] deals with Corynebacterium glutamicum MTCC 2679.
Experiment [10] has as its system Vibrio cholerae MTCC 3904.
Experiment [11] concerns Staphylococcus haemolyticus MTCC 3383.
For experiment [12], the system named is Pseudomonas aeruginosa MTCC 3542.
Experiment [13] has as its system Staphylococcus aureus MTCC 3160.
For experiment [14], the system named is Citrobacter koseri MTCC 1657.
The test system of experiment [15] is Enterococcus faecalis MTCC 439.
In experiment [16] the test system is Salmonella enterica MTCC 9844.
Experiment [17] concerns Bordetella bronchiseptica MTCC 6837.
Experiment [18] deals with Shigella flexneri MTCC 1457.
Experiment [19] has as its system Citrobacter freundii MTCC 1658.
The subject of experiment [20] is Haemophilus influenzae MTCC 621.
The subject of experiment [21] is Alkalihalobacillus alcalophilus MTCC 860.
Experiment [22] has as its system Alcaligenes faecalis MTCC 1937.
The subject of experiment [23] is Acinetobacter baumannii MTCC 9829.
The test system of experiment [24] is Klebsiella aerogenes MTCC 111.
For experiment [25], the system named is Pluralibacter gergoviae MTCC 3826.
The test system of experiment [26] is Klebsiella oxytoca MTCC 2275.
The subject of experiment [27] is Candida albicans SC5314.
The subject of experiment [28] is Candida albicans ATCC 90028.
The test system of experiment [29] is Candida parapsilosis ATCC 22019.
Experiment [30] deals with Candida krusei ATCC 6258.
The subject of experiment [31] is Staphylococcus aureus ATCC 6538P.
Experiment [32] concerns Escherichia coli K-12.
Experiment [33] deals with Pseudomonas aeruginosa PAO1.
In experiment [34] the test system is Klebsiella pneumoniae ATCC 13883.
In experiment [35] the test system is Staphylococcus aureus USA 300.
Experiment [36] concerns Staphylococcus aureus USA 300 LAC.
In experiment [37] the test system is Escherichia coli ATCC 25922.

As to `CC(C)C[C@H](NC(=O)[C@H](C)N)C(=O)N[C@@H](Cc1c[nH]c2ccccc12)C(=O)N[C@@H](Cc1cnc[nH]1)C(=O)N[C@@H](Cc1cnc[nH]1)C(=O)N[C@@H](CC(C)C)C(=O)N[C@@H](CC(C)C)C(=O)N[C@@H](Cc1cnc[nH]1)C(=O)N[C@@H](Cc1cnc[nH]1)C(=O)N[C@@H](CC(C)C)C(=O)N[C@@H](CC(C)C)C(=O)N[C@@H](Cc1cnc[nH]1)C(=O)N[C@@H](CO)C(=O)N[C@@H](C)C(=O)N[C@@H](Cc1cnc[nH]1)C(=O)N[C@@H](Cc1cnc[nH]1)C(=O)N[C@@H](CC(C)C)C(=O)NCC(N)=O` [ALWHHLLHHLLHSAHHLG], in experiment [1], the MIC is 1.88 µM (≈ 3.99 µg/mL).
For `CC[C@H](C)[C@H](NC(=O)[C@@H](NC(=O)[C@H](C)NC(=O)[C@H](Cc1cnc[nH]1)NC(=O)[C@H](CC(C)C)NC(=O)[C@H](CCCN=C(N)N)NC(=O)[C@H](C)NC(=O)[C@H](Cc1ccc(O)cc1)NC(=O)[C@@H](NC(=O)[C@@H](N)CCCCN)C(C)C)C(C)C)C(=O)N[C@@H](CCCCN)C(=O)N[C@@H](CCCN=C(N)N)C(=O)N[C@@H](CC(C)C)C(=O)N[C@@H](Cc1cnc[nH]1)C(=O)N[C@@H](CCCN=C(N)N)C(=O)N[C@@H](CCCN=C(N)N)C(=O)N[C@@H](CC(C)C)C(=O)N[C@@H](Cc1cnc[nH]1)C(=O)O` [KVYARLHAVIKRLHRRLH], the MIC in experiment [2] is not below 56.5 µM; in experiment [3], 7.06 µM (≈ 16 µg/mL); in experiment [4], 3.53 µM (≈ 8 µg/mL); in [5] it was not below 56.5 µM; in [6], 14.1 µM (≈ 32 µg/mL); in [7], not below 56.5 µM. Moreover, the MIC in experiment [8] is not below 56.5 µM; in experiment [9], 0.882 µM (≈ 2 µg/mL); in experiment [10] it was not below 56.5 µM; in experiment [11] it was 1.76 µM (≈ 4 µg/mL); in [12], not below 56.5 µM; in experiment [13], not below 56.5 µM. In addition, the MIC in experiment [14] is 14.1 µM (≈ 32 µg/mL); in [15] it was not below 56.5 µM; in [16] it was 14.1 µM (≈ 32 µg/mL); in [17], 1.76 µM (≈ 4 µg/mL); in experiment [18] it was 1.76 µM (≈ 4 µg/mL); in [19] it was 14.1 µM (≈ 32 µg/mL). Besides, the MIC in experiment [20] is 1.76 µM (≈ 4 µg/mL); in experiment [21], 14.1 µM (≈ 32 µg/mL); in experiment [22], not below 56.5 µM; in experiment [23], 14.1 µM (≈ 32 µg/mL); in [24], not below 56.5 µM; in experiment [25], not below 56.5 µM. Also, the MIC in experiment [26] was found to be 3.53 µM (≈ 8 µg/mL).
Take `CC[C@H](C)[C@H](NC(=O)CN)C(=O)N[C@@H](Cc1c[nH]c2ccccc12)C(=O)N[C@@H](CCCCN)C(=O)N[C@@H](CCCCN)C(=O)N[C@@H](Cc1c[nH]c2ccccc12)C(=O)N[C@H](C(=O)N[C@@H](CCCCN)C(=O)N[C@@H](CCCCN)C(=O)N[C@@H](Cc1c[nH]c2ccccc12)C(=O)N[C@@H](CC(C)C)C(=O)N[C@@H](CCCCN)C(=O)N[C@@H](CCCCN)C(=O)N[C@@H](CC(C)C)C(=O)N[C@@H](CC(C)C)C(=O)N[C@@H](CCCCN)C(=O)N[C@@H](CCCCN)C(=O)N[C@@H](CC(C)C)C(=O)N[C@@H](Cc1c[nH]c2ccccc12)C(=O)N[C@@H](CCCCN)C(=O)N[C@@H](CCCCN)C(=O)NCC(=O)O)[C@@H](C)CC` [GIWKKWIKKWLKKLLKKLWKKG]: the MIC in [27] was determined as 11.3 µM (≈ 32 µg/mL); in [28], 22.6 µM (≈ 64 µg/mL); in [29], 22.6 µM (≈ 64 µg/mL); in experiment [30], 22.6 µM (≈ 64 µg/mL).
For `CC[C@H](C)[C@H](NC(=O)CN)C(=O)N[C@@H](Cc1c[nH]c2ccccc12)C(=O)N[C@@H](CCCCN)C(=O)N[C@@H](CCCCN)C(=O)N[C@@H](Cc1c[nH]c2ccccc12)C(=O)N[C@H](C(=O)N[C@@H](CCCCN)C(=O)N[C@@H](CCCCN)C(=O)N[C@H](C(=O)N[C@H](C(=O)N[C@@H](CC(N)=O)C(=O)N[C@H](C(=O)N[C@@H](CC(C)C)C(=O)N[C@@H](CCCCN)C(=O)N[C@@H](CC(N)=O)C(=O)N[C@@H](CC(C)C)C(=O)N[C@@H](Cc1ccccc1)C(N)=O)C(C)C)C(C)C)C(C)C)[C@@H](C)CC` [GIWKKWIKKVVNVLKNLF], the MIC in experiment [27] worked out at 7.23 µM (≈ 16 µg/mL); in experiment [28], 14.5 µM (≈ 32 µg/mL); in [29] it was 7.23 µM (≈ 16 µg/mL); in experiment [30], 14.5 µM (≈ 32 µg/mL).
With `CC(C)C[C@H](NC(=O)[C@H](CC(C)C)NC(=O)[C@H](CCCCN)NC(=O)[C@H](CC(C)C)NC(=O)[C@H](CC(C)C)NC(=O)[C@H](CCCCN)NC(=O)[C@H](CCCCN)NC(=O)[C@H](CC(C)C)NC(=O)[C@@H](N)CC(C)C)C(N)=O` [LLKKLLKLL], the MIC in experiment [31], in experiment [1], in [32] and in experiment [33] was 1.56 µM (≈ 1.69 µg/mL) throughout.
Turning to `CC[C@H](C)[C@H](NC(=O)[C@H](CCCN=C(N)N)NC(=O)[C@H](CCCN=C(N)N)NC(=O)[C@H](CC(C)C)NC(=O)[C@H](Cc1c[nH]c2ccccc12)NC(=O)[C@H](Cc1c[nH]c2ccccc12)NC(=O)[C@@H](N)Cc1c[nH]c2ccccc12)C(=O)N[C@@H](Cc1c[nH]c2ccccc12)C(N)=O` [WWWLRRIW], the MIC in [34] was 25 µM (≈ 32.5 µg/mL); in [35] it was 3.1 µM (≈ 4.03 µg/mL); in experiment [36], 3.1 µM (≈ 4.03 µg/mL); in experiment [33] it was more than 50 µM; in experiment [37], 6.2 µM (≈ 8.06 µg/mL).
